In PubChem BioAssay AID1417 (Emory University Molecular Libraries Screening Center, 2008):

What follows are compounds tested against Induced myeloid leukemia cell differentiation protein Mcl-1 (Homo sapiens) (UniProt Q07820) (assay: Mcl-1/Noxa binding inhibitor potency, dose response, biochemical, TR-FRET (AID 1417)). Details: Mcl-1/Noxa peptide interaction, cell-free TR-FRET (terbium/rhodamine), 2 h; measured here: absolute IC50.
Sequence of Induced myeloid leukemia cell differentiation protein Mcl-1 (Homo sapiens) (Q07820 whole entry, looked up): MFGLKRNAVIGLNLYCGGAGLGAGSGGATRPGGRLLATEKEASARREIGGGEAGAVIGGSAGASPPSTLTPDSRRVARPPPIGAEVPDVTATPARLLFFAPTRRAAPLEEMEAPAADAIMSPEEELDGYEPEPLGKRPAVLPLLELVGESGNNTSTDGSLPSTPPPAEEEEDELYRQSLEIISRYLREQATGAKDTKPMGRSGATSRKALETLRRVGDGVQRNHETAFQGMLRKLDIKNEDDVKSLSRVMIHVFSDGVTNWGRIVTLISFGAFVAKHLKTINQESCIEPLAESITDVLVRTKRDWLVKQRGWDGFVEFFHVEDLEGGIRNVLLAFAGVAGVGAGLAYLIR

Row | Structure (SMILES) | IC50 [µM]
1 | Oc1c(Cl)cc(Cl)cc1/C=C/c1ccc2cccc(O)c2n1 | > 54
2 | C=C(C)C(=O)Nc1cccc(C2=NOC3(C2)C[C@H](C(N)=O)N(C(=O)C(c2ccccc2)c2ccccc2)C3)c1 (stereo partly drawn) | 4.43
3 | NC(=O)c1nn(CC(=O)Nc2ccc3c(c2)OCO3)cc1[N+](=O)[O-] | > 54
4 | O=C(CN1CCN(c2ccc(O)cc2)CC1)Nc1cc([N+](=O)[O-])ccc1Cl | 6.48
5 | O=C1/C(=C/c2ccccn2)SC(=S)N1c1ccc(O)cc1 | 8.38
6 | O=C1NC(=S)N/C1=C/c1cccn1-c1ccc([N+](=O)[O-])cc1 | > 54
7 | O=C(Nc1ccc2c(c1)nc1n2CCN(C2CCCCC2)C1)c1ccco1 | 9.74
8 | Cn1c(=O)c2c(nc(NCc3ccco3)n2CC(O)COc2ccccc2)n(C)c1=O (stereo not drawn) | > 54
9 | O=C(O)CCCCCN1C(=O)/C(=C\c2ccc(-c3ccc(Cl)cc3)o2)SC1=S | 1.36
10 | O=C(O)COc1ccccc1C(Nc1cccnc1)c1cc(Cl)c2cccnc2c1O (stereo not drawn) | < 0.4
11 | CCNc1ccc(Br)cc(C(=O)/C=C/c2c(Cl)cccc2Cl)c1=O | 1.8
12 | COCCN=c1scc(-c2cccs2)n1/N=C/c1ccc(O)c(O)c1O | 4.33
13 | CCOc1cc(/C=C(\C#N)c2[nH]nc(N)c2C#N)ccc1O | 4.6
14 | C=CCc1c(C)nc(SCCC)[nH]c1=O | > 54
15 | COc1ccc(NC(=O)c2cc(-c3ccco3)nc3ccccc23)cc1S(=O)(=O)N1CCOCC1 | < 0.4
16 | [O-][n+]1onc2c1CCC(=N/O)/C2=N\Nc1ccccc1 | 1.06
17 | Clc1cccc(N/N=C/c2ccc(N3CCOCC3)s2)c1 | < 0.4
18 | O=C(O)c1ccc(N/N=C/c2ccc(-c3cc(Cl)ccc3Cl)o2)cc1 | 1.84
19 | O=C1NC(=O)C(=Cc2ccc(-c3cc(Cl)ccc3[N+](=O)[O-])o2)C(=O)N1 | 3.25
20 | Cc1cc(C(=O)N/N=C/c2cc(N=Nc3ccccc3)ccc2O)n[nH]1 | 10.9
21 | CC(=O)Oc1ccc(NC(=O)CSc2ccccc2)cc1 | > 54
22 | O=c1cc2c(=O)oc3cc(O)c(O)oc3c2c(O)c1O | < 0.4
23 | COc1cc(/C=C2\SC(=O)NC2=O)ccc1Oc1ccc([N+](=O)[O-])cc1[N+](=O)[O-] | 3.29
24 | CC[C@H](C)NC(=O)c1ccc(Cn2c(=S)[nH]c3c([nH]c4ccc(OC)cc43)c2=O)cc1 | 6.17
25 | C/C(=N\NC(=O)c1cccc(N/N=C(\C)c2cc(O)ccc2O)c1)c1cc(O)ccc1O | < 0.4
26 | O=C1/C(=C\c2ccccn2)SC(=S)N1c1ccc(S(=O)(=O)Nc2nccs2)cc1 | 2.69

Row | Structure (SMILES) | IC50 [µM]
27 | O=C(COC(=O)c1c2c(nc3ccccc13)/C(=C/c1ccco1)CC2)NC1CCCC1 | 2.35
28 | COc1ccc(C(=O)Nc2cccc(/C=C(\CCC(=O)O)c3nc4ccccc4s3)c2)cc1 | 3.94
29 | O=C(CN1C(=O)/C(=C2\SC(=S)N(C3CCS(=O)(=O)C3)C2=O)c2ccccc21)Nc1ccccc1 (stereo not drawn) | < 0.4
30 | COc1ccc(N2CCC(CNC(=O)Nc3ccc(OC)cc3OC)C2)cc1 (stereo not drawn) | 1.24
31 | Oc1ccc(/C=N/NC(=S)Nc2cccnc2)c(O)c1O | < 0.4
32 | N=c1oc2cc(O)ccc2cc1C(=O)Nc1nc2ccccc2s1 | 2.93
33 | Cc1nc(N)sc1-c1csc(Nc2ncccn2)n1 | 3.98
34 | CN(C)c1ccc(NC(=O)c2cn(-c3ccccc3)nc2-c2cccs2)cc1 | > 54
35 | Cc1ccc2c(c1)NC(=O)c1cccnc1N2 | > 54
36 | Cc1cc(C)n2c(SC/C(O)=C(\C#N)c3nc4ccccc4[nH]3)nnc2n1 | < 0.4
37 | O=C(O)c1ccccc1-c1ccc(/C=c2\sc3nc4cc(Br)cnc4n3c2=O)o1 | 3.09
38 | CCN(CC)c1ccc(NC(=O)Nc2cccc(C(C)=O)c2)cc1 | > 54
39 | O=c1ccc2[n+]([O-])c3ccc(O)cc3oc-2c1 | > 54
40 | O=C1NC(=S)N(C2CC2)C(=O)/C1=C/c1ccc2c(c1)CCN2CCCCl | 0.728
41 | N=C1/C(=C\c2ccc(-c3ccc(C(=O)O)cc3)o2)C(=O)N=C2SC=C(c3ccccc3)N12 | < 0.4
42 | O=C(NCc1ccco1)c1c2c(nc3ccccc13)CCC2 | 3.96
43 | CCOC(=O)C1=C(O)c2ccccc2C(=O)/C1=C\c1ccc(CC)cc1 | < 0.4
44 | O=C1N/C(=N/Nc2ccccc2)S/C1=C\c1ccccc1 | > 54
45 | CC(C)c1ccc(Nc2nnc(SCC(=O)c3nnc(-c4ccccc4)o3)s2)cc1 | 1.92
46 | C=C(C)C(=O)Nc1cccc(C2=NOC3(C2)C[C@@H](C(N)=O)N(C(=O)C(=C)C)C3)c1 (stereo partly drawn) | > 54
47 | CC1=C(C#N)C(=O)N(C2CCS(=O)(=O)C2)C(=O)/C1=C\c1ccc(C)o1 (stereo not drawn) | < 0.4
48 | O=C1/C(=C/C=C/c2ccco2)SC(=S)N1NS(=O)(=O)c1ccccc1 | 1.41
49 | O=C1CCCCC1C(=O)c1ccccc1 (stereo not drawn) | > 54
50 | O=[N+]([O-])c1cc(Br)c(O)c(/C=N/Nc2nc3ccccc3s2)c1 | < 0.4
51 | O=C(O)c1ccc(-n2cccc2/C=C2/NC(=O)N(c3cccc(Cl)c3)C2=O)cc1 | < 0.4
52 | Cc1ccc(-n2cccc2/C=C2/C(=N)N3C(=NC2=O)SN=C3S(C)(=O)=O)cc1Cl | 1.1

Row | Structure (SMILES) | IC50 [µM]
53 | CCCOc1ccc(Cc2nn3c(=O)/c(=C/c4ccco4)sc3nc2=O)cc1 | > 54
54 | COc1ccc2c(c1)CC/C(=C\Nc1ccc3c(c1)OCO3)C2=O | > 54
55 | CCC(=O)NC1=C(Cl)C(=O)C(NC(=O)CC)=C(Cl)C1=O | < 0.4
56 | Cc1ccc(/C=C2\C(=O)NC(=S)N(c3ccccc3F)C2=O)s1 | 1.86
57 | CCOC(=O)c1c(C)oc2c1c(C(c1ccncc1)N1CCOCC1)c(O)c1ccccc12 (stereo not drawn) | < 0.4
58 | Cc1c(NS(=O)(=O)c2cc(NC(=O)CCN3CCCC(C)C3)ccc2Cl)c(=O)n(-c2ccccc2)n1C (stereo not drawn) | > 54
59 | COc1cc(O)c(C(=O)O)c(-c2cc(O)c(O)cc2C)c1 | < 0.4
60 | CCCCn1c(SCC(=O)NCCOC)nc2ccc(N3CCOCC3)cc2c1=O | > 54
61 | Cn1cnnc1SCC(=O)Nc1sc2c(c1C(N)=O)CCC2 | 1.81
62 | CCOc1ccc(C(Nc2cccnc2)c2cc(Cl)c3cccnc3c2O)cc1 (stereo not drawn) | 3.25
63 | N=C1CCC(=N)c2c1c(O)c1ccccc1c2O | > 54
64 | COc1ccc(/C=C2\C(=O)N(c3c(Cl)cc(Cl)cc3Cl)N=C2NC(=O)c2cccc([N+](=O)[O-])c2)cc1 | 2.96
65 | Cc1nnc(NC(=O)COc2ccc3c(C)cc(=O)oc3c2)s1 | 5.88
66 | CCN(CC)C(=O)COC(=O)c1cc(-c2ccco2)nc2ccccc12 | < 0.4
67 | CSCc1nc2sc(C(=O)Nc3nc(C)cs3)c(C)c2c(=O)[nH]1 | 4.1
68 | Cc1cc(C)c2oc(C(=O)Nc3ccc(S(=O)(=O)Nc4nccs4)cc3)cc(=O)c2c1 | 4.58
69 | CCn1cc(C(=O)NCc2ccc3c(c2)OCO3)c2cc(OC)c(OC)cc2c1=O | > 54
70 | O=C1NC(=S)S/C1=C\C=C\c1ccc([N+](=O)[O-])o1 | < 0.4
71 | CCCCOC(=O)Nc1ccc(N(C)C)cc1 | 52.5
72 | O=c1nc2s/c(=C\c3ccc(-c4ccccc4[N+](=O)[O-])o3)c(=O)n2nc1-c1ccccc1 | < 0.4
73 | C=CCn1c(N2CCCCCC2)nc2c1c(=O)n(C)c(=O)n2C | > 54
74 | CCOC(=O)c1c(-c2ccc(C)cc2)csc1NC(=O)/C(C#N)=C/c1ccc(O)c(OC)c1 | < 0.4
75 | Oc1ccc(/C=N/Nc2ccnc3cc(Cl)ccc23)cc1O | 1.99
76 | C=C(C)C(=O)Nc1cccc(C2=NOC3(C2)C[C@@H](C(N)=O)N(C(=O)/C=C/C=C/C)C3)c1 (stereo partly drawn) | < 0.4
77 | O=C(O)c1cc(-c2ccc(/C=C3/SC(=S)N(Cc4ccccc4)C3=O)o2)ccc1Cl | 1.51
78 | Cc1ccc(/C=C2/SC(=O)NC2=S)o1 | 4.11
